Results from patent US20220213063A1, “N-[l-(5-BROMO-2-PYRIMIDIN-2-YL-1,2,4-TRIAZOL-3-YL)ETHYL]-2-CYCLOPROPYL-6-(TRIFLUOROMETHYL)PYRIDINE-4-CARBOXAMIDE DERIVATIVES AND RELATED COMPOUNDS AS INSECTICIDES” (SYNGENTA CROP PROTECTION AG, priority 2019, published 2022).

Tests used:
Format in all cases: in vivo
[1] = tested on: Chilo suppressalis (Striped Rice Stemborer); experiment: Example B4: Chilo suppressalis (striped rice stemborer), artificial diet; conditions: 144 h, application rate of 200 ppm, L2 larvae, 6 days after infestation, in comparison to untreated samples, read-out: control in at least one of the three categories (mortality, anti-feedant or growth inhibition)
Procedure: Example B4: Chilo suppressalis (Striped Rice Stemborer)
24-well microtiter plates with artificial diet were treated with aqueous test solutions prepared from 10'000 ppm DMSO stock solutions by pipetting. After drying, the plates were infested with L2 larvae (6-8 per well). The samples were assessed for mortality, anti-feeding effect, and growth inhibition in comparison to untreated samples 6 days after infestation. Control of Chilo suppressalis by a test sample is given when at least one of the categories mortality, anti-feedant effect, and growth inhibition is higher than the untreated sample.

[2] = tested on: Diabrotica Balteata (Corn Root Worm); experiment: Example B1: Diabrotica balteata (corn root worm), sprayed maize sprouts; conditions: 96 h, application rate of 200 ppm, L2 larvae, 4 days after infestation, in comparison to untreated samples, read-out: control in at least one of the two categories (mortality or growth inhibition)
Procedure: Example B1: Diabrotica Balteata (Corn Root Worm)
Maize sprouts placed onto an agar layer in 24-well microtiter plates were treated with aqueous test solutions prepared from 10'000 ppm DMSO stock solutions by spraying. After drying, the plates were infested with L2 larvae (6 to 10 per well). The samples were assessed for mortality and growth inhibition in comparison to untreated samples 4 days after infestation.
The following compounds gave an effect of at least 80% control in at least one of the two categories (mortality or growth inhibition) at an application rate of 200 ppm: […]

[3] = tested on: Plutella xylostella (Diamond Back Moth); experiment: Example B5: Plutella xylostella (diamond back moth), artificial diet; conditions: 192 h, application rate of 200 ppm, eggs, 8 days after infestation, in comparison to untreated samples, read-out: effect in at least one of the two categories (mortality or growth inhibition)
Procedure: Example B5: Plutella xylostella (Diamond Back Moth)
24-well microtiter plates with artificial diet were treated with aqueous test solutions prepared from 10'000 ppm DMSO stock solutions by pipetting. After drying, Plutella eggs were pipetted through a plastic stencil onto a gel blotting paper and the plate was closed with it. The samples were assessed for mortality and growth inhibition in comparison to untreated samples 8 days after infestation.
The following compounds gave an effect of at least 80% in at least one of the two categories (mortality or growth inhibition) at an application rate of 200 ppm: […]

[4] = tested on: Spodoptera littoralis (Egyptian Cotton Leaf Worm); experiment: Example B9: Spodoptera littoralis (Egyptian cotton leaf worm), sprayed cotton leaf discs; conditions: foliar, 72 h, application rate of 200 ppm, L1 larvae, 3 days after infestation, in comparison to untreated samples, read-out: control in at least one of the three categories (mortality, anti-feedant effect, or growth inhibition)
Procedure: Example B9: Spodoptera littoralis (Egyptian Cotton Leaf Worm)
Cotton leaf discs were placed onto agar in 24-well microtiter plates and sprayed with aqueous test solutions prepared from 10'000 ppm DMSO stock solutions. After drying the leaf discs were infested with five L1 larvae. The samples were assessed for mortality, anti-feeding effect, and growth inhibition in comparison to untreated samples 3 days after infestation. Control of Spodoptera littoralis by a test sample is given when at least one of the categories mortality, anti-feedant effect, and growth inhibition is higher than the untreated sample.

[5] = tested on: Frankliniella occidentalis (Western Flower Thrips); experiment: Example B3: Frankliniella occidentalis (western flower thrips), feeding/contact activity; conditions: 168 h, application rate of 200 ppm, population of mixed ages, 7 days after infestation
Procedure: Example B3: Frankliniella occidentalis (Western Flower Thrips):Feeding/Contact Activity
Sunflower leaf discs were placed on agar in 24-well microtiter plates and sprayed with aqueous test solutions prepared from 10'000 DMSO stock solutions. After drying the leaf discs were infested with a Frankliniella population of mixed ages. The samples were assessed for mortality 7 days after infestation.

[6] = tested on: Myzus persicae (Green Peach Aphid); experiment: Example B8: Myzus persicae (green peach aphid), intrinsic activity; conditions: 120 h, test rate of 12 ppm, mixed with sucrose solution, 5 days after infestation
Text: Example B8: Myzus persicae (Green Peach Aphid): Intrinsic Activity
Test compounds prepared from 10'000 ppm DMSO stock solutions were applied by pipette into 24-well microtiter plates and mixed with sucrose solution. The plates were closed with a stretched Parafilm. A plastic stencil with 24 holes was placed onto the plate and infested pea seedlings were placed directly on the Parafilm. The infested plate was closed with a gel blotting paper and another plastic stencil and then turned upside down. The samples were assessed for mortality 5 days after infestation.

CC(NC(=O)c1cc(C(F)(F)F)cc(C(F)(F)C2CC2)c1)c1nc(Br)nn1-c1ncccn1 (stereo not shown) [Compound P4, N-[1-(5-bromo-2-pyrimidin-2-yl-1,2,4-triazol-3-yl)ethyl]-3-[cyclopropyl(difluoro)methyl]-5-(trifluoromethyl)benzamide]
≥ 80%: percent control (mortality, anti-feedant effect or growth inhibition) at 200 ppm [1] | percent control (mortality or growth inhibition) at 200 ppm [2] | percent effect (mortality or growth inhibition) at 200 ppm [3] | percent control (mortality, anti-feedant effect or growth inhibition) at 200 ppm [4]

CC(NC(=O)c1cc(C2CC2C(F)(F)F)cc(C(F)(F)F)c1)c1nc(Br)nn1-c1ncccn1 (stereo not shown) [Compound P7, N-[1-(5-bromo-2-pyrimidin-2-yl-1,2,4-triazol-3-yl)ethyl]-3-(trifluoromethyl)-5-[2-(trifluoromethyl)cyclopropyl]benzamide]
≥ 80%: percent control (mortality, anti-feedant effect or growth inhibition) at 200 ppm [1] | percent control (mortality or growth inhibition) at 200 ppm [2] | percent effect (mortality or growth inhibition) at 200 ppm [3] | percent control (mortality, anti-feedant effect or growth inhibition) at 200 ppm [4]

CC(NC(=O)c1cc(C2CC2)nc(C(F)(F)F)c1)c1nc(Br)nn1-c1ncccn1 (stereo not shown) [Compound P5, N-[1-(5-bromo-2-pyrimidin-2-yl-1,2,4-triazol-3-yl)ethyl]-2-cyclopropyl-6-(trifluoromethyl)pyridine-4-carboxamide]
≥ 80%: percent control (mortality, anti-feedant effect or growth inhibition) at 200 ppm [1] | percent control (mortality or growth inhibition) at 200 ppm [2] | percent effect (mortality or growth inhibition) at 200 ppm [3] | percent control (mortality, anti-feedant effect or growth inhibition) at 200 ppm [4]

CC(NC(=O)c1cc(C(F)(F)F)nc(C2(C#N)CC2)c1)c1nc(Br)nn1-c1ccc(F)cn1 (stereo not shown) [Compound P1, N-[1-[5-bromo-2-(5-fluoro-2-pyridyl)-1,2,4-triazol-3-yl]ethyl]-2-(1-cyanocyclopropyl)-6-(trifluoromethyl)pyridine-4-carboxamide]
≥ 80%: percent control (mortality, anti-feedant effect or growth inhibition) at 200 ppm [1] | percent control (mortality or growth inhibition) at 200 ppm [2] | percent effect (mortality or growth inhibition) at 200 ppm [3] | percent control (mortality, anti-feedant effect or growth inhibition) at 200 ppm [4]

CC(NC(=O)c1cc(C2CC2)cc(C(F)(F)F)c1)c1nc(Br)nn1-c1ncccn1 (stereo not shown) [Compound P6, N-[1-(5-bromo-2-pyrimidin-2-yl-1,2,4-triazol-3-yl)ethyl]-3-cyclopropyl-5-(trifluoromethyl)benzamide]
≥ 80%: percent control (mortality, anti-feedant effect or growth inhibition) at 200 ppm [1] | percent control (mortality or growth inhibition) at 200 ppm [2] | percent effect (mortality or growth inhibition) at 200 ppm [3] | percent control (mortality, anti-feedant effect or growth inhibition) at 200 ppm [4]

CC(NC(=O)c1cc(C2CC2)cc(C(F)(F)F)c1)c1nc(Br)nn1-c1ccc(F)cn1 (stereo not shown) [Compound P8, N-[1-[5-bromo-2-(5-fluoro-2-pyridyl)-1,2,4-triazol-3-yl]ethyl]-3-cyclopropyl-5-(trifluoromethyl)benzamide]
≥ 80%: percent control (mortality, anti-feedant effect or growth inhibition) at 200 ppm [1] | percent effect (mortality or growth inhibition) at 200 ppm [3]

CC(NC(=O)c1cc(C(F)(F)F)nc(C2(C#N)CC2)c1)c1nc(Br)nn1-c1ncccn1 (stereo not shown) [Compound P3, N-[1-(5-bromo-2-pyrimidin-2-yl-1,2,4-triazol-3-yl)ethyl]-2-(1-cyanocyclopropyl)-6-(trifluoromethyl)pyridine-4-carboxamide]
≥ 80%: percent control (mortality, anti-feedant effect or growth inhibition) at 200 ppm [1] | percent control (mortality or growth inhibition) at 200 ppm [2] | percent effect (mortality or growth inhibition) at 200 ppm [3] | mortality at 200 ppm [5] | mortality at 12 ppm [6] | percent control (mortality, anti-feedant effect or growth inhibition) at 200 ppm [4]
